The subject of series [1] is Salmonella typhimurium TA98 strain. The experiment in a line: Ames test (reverse mutation test), TA98 strain. It counts as cell-based. From the text:
(§1) The Ames test is a test system for detecting a phenomenon that a histidine-requiring strain, which cannot grow without a specific amino acid (for example, histidine), is returned to a histidine-nonrequiring strain by a gene mutation due to a mutational substance. The Ames test is also called a reverse mutation test because a strain regains its original nature by a gene mutation. In the case of a metabolic activation test, a test substance, a test strain, and an enzyme for activating metabolism of drugs (S-9Mix) are mixed, and the mixture is cultured for 48 hours at 37° C. using an agar medium after preincubation for 20 minutes at 37° C. The number of induced revertant colonies is counted, and it is determined to be positive in the case where the ratio (MR value) of the number of the induced revertant colonies to the number of revertant colonies appearing in a negative control is 2 or more (refer to, for example, “Bacterial Reverse Mutation Test.” OECD GUIDELINE FOR TESTING OF CHEMICALS, no. 471, Adopted: 21, Jul. 1997).
(§2) The metabolic activation test is a test carried out by adding an enzyme for activating metabolism of drugs (that is, S-9Mix) which is obtained from a liver of a rat or the like in order to bring a metabolic system of drugs for microbes close to that of mammals.
(§3) With respect to Basic Brown 16 before and after purification, the Ames test was carried out using Salmonella typhimurium TA98 strain and Salmonella typhimurium TA1537 strain with and without an enzyme for activating metabolism of drugs (S-9Mix) in each strain.
(§4) The Ames test was carried out on the same condition also with respect to the component indicating positive in the Ames test and represented by the structural formula (III) among impurities contained in Basic Brown 16.
A general note: The Ames test uses bacterial strains that need an amino acid and regain growth without it when mutated back.

In series [2] the test system is Salmonella typhimurium TA1537 strain. The series can be described thus: Ames test (reverse mutation test), TA1537 strain. The class given is cell-based.
Description: as §1, §2, §3, §4

For series [3] the following is noted: strain not stated; SCCP Opinion on Basic Brown 16, 2008; cited from earlier work.
The subject of series [4] is Salmonella typhimurium TA98 strain. Conditions: TA98 (TA1537 strain and/or TA98 strain); SCCP Opinion on Basic Brown 16, 2008; cited from earlier work.
Series [5] has as its system Salmonella typhimurium TA1537 strain. Conditions: TA1537 (TA1537 strain and/or TA98 strain); SCCP Opinion on Basic Brown 16, 2008; cited from earlier work.

Each structure is given as a SMILES string. Where two headings read alike, the source gives them in different places.

For `CN(C)c1ccc2ccc(O)c(N=Nc3ccc(N)cc3)c2c1` [Component of structural formula (III)], the Ames test result in series [1] (TA98) and in series [2] (TA1537) was “positive (it is determined to be positive in the case where the ratio (MR value) of the number of the induced revertant colonies to the number of revertant colonies appearing in a negative control is 2 or more)” throughout. Also, the “MR value (ratio of induced revertant colonies to negative control)” value in series [1] (TA98, +S9 (with S-9Mix)) is on record as 53.0; in series [1] (TA98, −S9 (without S-9Mix)) it was 0.9; in series [2] (TA1537, +S9 (with S-9Mix)), 10.5; in series [2] (TA1537, −S9 (without S-9Mix)) it was 1.2.

On to `C[N+](C)(C)c1ccc2ccc(O)c(N=Nc3ccc(N)cc3)c2c1.[Cl-]` [Basic Brown 16], for which the Ames test result in series [3], in series [4] and in series [5] was “positive” each time.

Source of the values: patent publication US8834579B2, “Dye composition for hair dyeing and method for producing the same” (Hodogaya Chemical Co., Ltd., priority 2012, dated 2014).
